# From article PMC4447455, “Towards Elucidating Carnosic Acid Biosynthesis in Lamiaceae: Functional Characterization of the Three First Steps of the Pathway in Salvia fruticosa and Rosmarinus officinalis” (PLoS ONE, 2015)
# Experiments:
# SfKSL [1] = molecular target: T1, SfKSL (Salvia fruticosa, UniProt A0A0C5QH30); assay: coupled assay with SfCPS, GC-MS of product; format: biochemical; conditions: CDP formed in situ by SfCPS from 200 uM GGDP; pH 7.0, 20 mM MgCl2, 0.2 mM MnCl2, room temperature overnight
# T1 construct: gene KSL; pseudomature SfKSLm without predicted N-terminal transit peptide (49 residues); full ORF 1755 bp; lacks gamma domain
# T1 sequence (A0A0C5QH30 50-584): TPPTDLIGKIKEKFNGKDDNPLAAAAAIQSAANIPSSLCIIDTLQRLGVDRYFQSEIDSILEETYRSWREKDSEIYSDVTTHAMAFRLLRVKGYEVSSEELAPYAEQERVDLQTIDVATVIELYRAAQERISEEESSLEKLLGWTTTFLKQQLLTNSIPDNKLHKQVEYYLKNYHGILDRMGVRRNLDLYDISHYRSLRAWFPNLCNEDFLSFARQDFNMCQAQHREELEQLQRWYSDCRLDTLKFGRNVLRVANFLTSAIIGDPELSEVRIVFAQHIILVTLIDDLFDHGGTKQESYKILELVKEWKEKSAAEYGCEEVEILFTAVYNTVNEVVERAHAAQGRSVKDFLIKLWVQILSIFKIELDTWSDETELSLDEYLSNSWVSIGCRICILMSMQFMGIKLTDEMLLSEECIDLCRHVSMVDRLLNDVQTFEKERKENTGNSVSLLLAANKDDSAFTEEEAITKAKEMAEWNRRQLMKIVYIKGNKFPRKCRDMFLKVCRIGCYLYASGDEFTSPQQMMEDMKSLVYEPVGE
# SfCPS = molecular target: T2, SfCPS (Salvia fruticosa, UniProt A0A0A7RQ84); assay: GC-MS of dephosphorylated product (copalol); format: biochemical; conditions: pH 7.0, 20 mM MgCl2, 0.2 mM MnCl2, 60 uM GGDP, room temperature overnight
# T2 construct: gene CDS; pseudomature SfCPSm without predicted N-terminal transit peptide (30 residues); full ORF 2391 bp
# T2 sequence (A0A0A7RQ84 entry or part of it): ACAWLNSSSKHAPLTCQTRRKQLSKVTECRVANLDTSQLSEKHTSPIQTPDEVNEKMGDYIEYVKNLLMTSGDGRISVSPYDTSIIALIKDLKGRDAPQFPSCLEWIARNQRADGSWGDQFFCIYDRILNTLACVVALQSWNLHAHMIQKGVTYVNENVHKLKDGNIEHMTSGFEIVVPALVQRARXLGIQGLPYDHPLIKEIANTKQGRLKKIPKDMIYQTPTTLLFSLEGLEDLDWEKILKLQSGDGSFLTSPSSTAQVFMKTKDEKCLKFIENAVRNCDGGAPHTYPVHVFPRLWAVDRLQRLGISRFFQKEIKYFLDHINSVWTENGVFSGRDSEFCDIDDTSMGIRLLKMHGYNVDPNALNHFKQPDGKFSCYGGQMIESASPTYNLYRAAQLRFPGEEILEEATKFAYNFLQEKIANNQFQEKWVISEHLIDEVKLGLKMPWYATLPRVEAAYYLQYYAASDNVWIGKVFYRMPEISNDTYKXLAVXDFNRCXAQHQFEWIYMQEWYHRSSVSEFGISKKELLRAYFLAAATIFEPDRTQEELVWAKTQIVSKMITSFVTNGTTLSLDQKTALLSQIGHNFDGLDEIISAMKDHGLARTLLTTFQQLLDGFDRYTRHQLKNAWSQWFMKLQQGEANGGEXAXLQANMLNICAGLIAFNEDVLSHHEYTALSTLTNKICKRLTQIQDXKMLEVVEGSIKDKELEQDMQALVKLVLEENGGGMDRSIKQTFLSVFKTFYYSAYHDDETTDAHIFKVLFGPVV
# SfKSL [2] = molecular target: T1, SfKSL; assay: coupled assay with SfCPS, GC-MS; NMR of product from yeast; format: biochemical; conditions: CDP formed in situ by SfCPS from 200 uM GGDP; pH 7.0, 20 mM MgCl2, 0.2 mM MnCl2, room temperature overnight
# RoFS2 = molecular target: T3, RoFS2 (Salvia rosmarinus, UniProt A0A0C5QEW3); assay: yeast co-expression, GC-MS; format: cell-based; conditions: co-expressed RoCPS1m, RoKSL1f, PtCPR2; also shown in N. benthamiana
# T3 construct: gene FS2; P450 ORF in pWTDH3, expressed in S. cerevisiae AM113 with RoCPS1m, RoKSL1f and poplar reductase PtCPR2; also N. benthamiana with SfCPS, SfKSL, AtCPR1
# T3 sequence (A0A0C5QEW3 entry or part of it): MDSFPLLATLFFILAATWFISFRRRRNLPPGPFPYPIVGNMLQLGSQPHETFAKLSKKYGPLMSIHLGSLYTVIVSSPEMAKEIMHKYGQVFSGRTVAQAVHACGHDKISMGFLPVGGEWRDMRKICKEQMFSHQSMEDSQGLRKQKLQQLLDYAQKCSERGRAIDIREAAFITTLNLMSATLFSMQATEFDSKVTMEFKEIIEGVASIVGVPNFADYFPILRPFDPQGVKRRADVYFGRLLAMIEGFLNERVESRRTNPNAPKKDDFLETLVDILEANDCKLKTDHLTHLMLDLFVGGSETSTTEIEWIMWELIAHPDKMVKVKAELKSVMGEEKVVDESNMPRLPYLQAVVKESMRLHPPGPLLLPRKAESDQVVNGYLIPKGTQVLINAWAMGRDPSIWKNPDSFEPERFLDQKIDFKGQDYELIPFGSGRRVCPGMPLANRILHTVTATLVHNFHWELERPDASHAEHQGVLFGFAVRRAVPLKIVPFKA
# SfFS = molecular target: T4, SfFS (Salvia fruticosa, UniProt A0A0C5QRZ2); assay: yeast co-expression, GC-MS; format: cell-based; conditions: co-expressed SfCPS, SfKSL, PtCPR2; also shown in N. benthamiana
# T4 construct: gene CYP76AH24; P450 ORF in pWTDH3, expressed in S. cerevisiae AM104 with SfCPSm, SfKSLm and poplar reductase PtCPR2; also N. benthamiana with AtCPR1
# T4 sequence (A0A0C5QRZ2 1-492): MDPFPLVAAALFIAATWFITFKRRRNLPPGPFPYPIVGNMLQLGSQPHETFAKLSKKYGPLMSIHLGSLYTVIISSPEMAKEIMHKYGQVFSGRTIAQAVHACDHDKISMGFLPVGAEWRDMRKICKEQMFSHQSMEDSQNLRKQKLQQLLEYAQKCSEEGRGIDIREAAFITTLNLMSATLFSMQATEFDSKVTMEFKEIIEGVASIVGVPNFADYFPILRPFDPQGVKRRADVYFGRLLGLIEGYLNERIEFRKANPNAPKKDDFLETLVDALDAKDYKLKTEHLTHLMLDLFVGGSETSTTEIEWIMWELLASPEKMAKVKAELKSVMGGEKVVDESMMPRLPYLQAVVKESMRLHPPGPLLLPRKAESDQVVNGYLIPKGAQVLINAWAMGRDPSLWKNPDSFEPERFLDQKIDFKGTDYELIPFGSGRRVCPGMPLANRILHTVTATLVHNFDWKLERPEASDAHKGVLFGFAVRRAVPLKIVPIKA
# RoFS1 = molecular target: T5, RoFS1 (Salvia rosmarinus, UniProt A0A0C5Q4Y6); assay: yeast co-expression, GC-MS; format: cell-based; conditions: co-expressed RoCPS1m, RoKSL1f, PtCPR2; also shown in N. benthamiana
# T5 construct: gene CYP76AH22; P450 ORF in pWTDH3, expressed in S. cerevisiae AM113 with RoCPS1m, RoKSL1f and poplar reductase PtCPR2; also N. benthamiana with SfCPS, SfKSL, AtCPR1
# T5 sequence (A0A0C5Q4Y6 1-493): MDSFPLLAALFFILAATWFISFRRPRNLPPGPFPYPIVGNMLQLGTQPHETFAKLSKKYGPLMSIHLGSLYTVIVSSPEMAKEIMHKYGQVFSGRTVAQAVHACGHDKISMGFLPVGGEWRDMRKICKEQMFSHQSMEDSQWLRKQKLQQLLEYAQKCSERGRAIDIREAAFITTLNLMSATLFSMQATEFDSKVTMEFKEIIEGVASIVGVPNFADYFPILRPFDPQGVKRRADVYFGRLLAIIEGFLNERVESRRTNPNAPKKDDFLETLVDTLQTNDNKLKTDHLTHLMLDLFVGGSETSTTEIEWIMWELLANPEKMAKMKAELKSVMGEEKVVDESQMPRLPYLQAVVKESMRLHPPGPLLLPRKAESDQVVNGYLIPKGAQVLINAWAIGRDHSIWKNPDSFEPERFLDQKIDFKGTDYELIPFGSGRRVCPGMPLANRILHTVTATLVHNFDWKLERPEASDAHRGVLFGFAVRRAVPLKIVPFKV
smiles,measurement,setting,value
C=C1CC[C@H]2C(C)(C)CCC[C@]2(C)[C@H]1CC/C(C)=C/COP(=O)(O)OP(=O)(O)O [CDP],"coupled assay with SfCPS, GC-MS of product",SfKSL [1],simultaneously with SfCPS in order to provide the necessary CDP substrate
same,GC-MS of dephosphorylated product (copalol),SfCPS; detected as copalol after alkaline phosphatase,identify the dephosphorylated product of the SfCPS catalyzed reaction as copalol
CC(C)=CCC/C(C)=C/CC/C(C)=C/CC/C(C)=C/COP(=O)(O)OP(=O)(O)O [GGDP],GC-MS of dephosphorylated product (copalol),SfCPS,His-tagged SfCPS protein was affinity purified and incubated with GGDP
CC(C)C1=CCC2=C(CC[C@H]3C(C)(C)CCC[C@]23C)C1 [miltiradiene],"coupled assay with SfCPS, GC-MS; NMR of product from yeast",SfKSL [2],"revealed a peak, which most closely corresponded to miltiradiene"
CC(C)c1cc2c(cc1O)[C@@]1(C)CCCC(C)(C)[C@@H]1CC2 [ferruginol],"yeast co-expression, GC-MS",RoFS2,GC-MS revealed the formation of ferruginol in all three strains analyzed
same,"yeast co-expression, GC-MS",SfFS,GC-MS revealed the formation of ferruginol in all three strains analyzed
same,"yeast co-expression, GC-MS",RoFS1,GC-MS revealed the formation of ferruginol in all three strains analyzed
